Data: PubChem BioAssay (NCI)
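Step 1: Grow cells in 96-well plates. Step 2: Expose to compound for 48 hours at 5 concentrations. Step 3: Interpolate endpoints linearly; if unreached, use highest concentration. GI50: concentration for 50% inhibition of growth. At the TGI there is no net growth.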

Assays:
Assay in all cases: inhibition of tumour cell growth, NCI panel, 48 h
[1] = tested on: ACHN renal
[2] = tested on: CCRF-CEM leukemia
[3] = tested on: HCT-116 colon
[4] = tested on: HT29 colon
[5] = tested on: K-562 leukemia
[6] = tested on: MCF7 breast
[7] = tested on: NCI-H23 lung
[8] = tested on: OVCAR-5 ovarian
[9] = tested on: SK-MEL-5 melanoma
[10] = tested on: SW-620 colon

SMILES | GI50 [1] | TGI [1] | GI50 [2] | TGI [2] | GI50 [3] | TGI [3] | GI50 [4] | TGI [4] | GI50 [5] | TGI [5] | GI50 [6] | TGI [6] | GI50 [7] | TGI [7] | GI50 [8] | TGI [8] | GI50 [9] | TGI [9] | GI50 [10] | TGI [10]
CCCCCCc1cc2cc(-c3csc(/C=C/c4ccccc4)n3)c(=O)oc2cc1O | 4.19 µM | 15.2 µM | 4.2 µM | 15 µM | 3.39 µM | 12.1 µM | > 100 µM | > 100 µM | 6.13 µM | 80.3 µM | 4.62 µM | 44 µM | 3.09 µM | 10.1 µM | 40.8 µM | > 100 µM | 19.3 µM | 49.3 µM | 5.6 µM | 20.7 µM
COc1ccc(/C=C/C(=O)c2ccc(Nc3nc(Nc4ccc(F)cc4)nc(Nc4ccc(Cl)cc4)n3)cc2)cc1 | > 100 µM | > 100 µM | 37.4 µM | > 100 µM | 39.9 µM | > 100 µM | 29.6 µM | > 100 µM | 15.4 µM | > 100 µM | 0.292 µM | 31.7 µM | > 100 µM | > 100 µM | > 100 µM | > 100 µM | 1.03 µM | 27.2 µM | > 100 µM | > 100 µM
CCC(C)CC(C)C(=O)c1c(O)ccn(O)c1=O (stereo not given) | 0.775 µM | > 100 µM | 0.6 µM | > 100 µM | 1.08 µM | > 100 µM | 27.2 µM | > 100 µM | 0.631 µM | > 100 µM | 3.09 µM | > 100 µM | 1.98 µM | > 100 µM | 23.7 µM | > 100 µM | 1.53 µM | 6.1 µM | 0.607 µM | > 100 µM
O=C(Cc1ccc(Nc2ccnc(C(F)(F)F)c2)cc1)N/N=C/c1ccccc1O | 1.46 µM | > 51.4 µM | 0.716 µM | 8.31 µM | 1.92 µM | > 39.6 µM | 6.53 µM | 56 µM | 2.74 µM | 20.1 µM | 2.94 µM | 23.7 µM | 4.23 µM | > 59.1 µM | 7.62 µM | > 83.1 µM | 2.58 µM | 11.1 µM | 3.02 µM | 17 µM
Cc1cc(C(O)(c2ccc(Nc3ccccc3)cc2)c2ccc(Nc3ccc(S(=O)(=O)O)cc3)cc2)ccc1N (stereo not given) | 1.29 µM | 2.7 µM | 0.439 µM | > 100 µM | 1.21 µM | 2.65 µM | 0.516 µM | 2.34 µM | 0.911 µM | > 100 µM | 0.478 µM | 2.67 µM | 1.69 µM | 3.56 µM | 1.4 µM | 3 µM | 1.26 µM | 2.58 µM | 0.818 µM | 3.27 µM
O=C(NS(=O)(=O)c1ccc(NC[C@H]2COCCO2)c([N+](=O)[O-])c1)c1ccc(N2CCN(CC3=C(c4ccc(Cl)cc4)CC4(CCC4)CC3)CC2)cc1Oc1cnc2[nH]ccc2c1 | 2.23 µM | 5.8 µM | 2.69 µM | > 100 µM | 2.69 µM | 12.5 µM | 2.58 µM | 8.14 µM | 3.04 µM | > 100 µM | 2.29 µM | 10.4 µM | 2.77 µM | 8.6 µM | 1.73 µM | 4.03 µM | 1.6 µM | 2.97 µM | 2.47 µM | 6.6 µM
CCC(C)(C)[C@H](NC(=O)[C@H]1CCCCN1C)C(=O)N(C)[C@H](C[C@@H](OC(C)=O)c1nc(C(=O)N[C@@H](Cc2ccccc2)C[C@H](C)C(=O)O)cs1)C(C)C | < 0.00167 µM | > 16.7 µM | < 0.00167 µM | > 16.7 µM | < 0.00167 µM | > 16.7 µM | < 0.00167 µM | > 16.7 µM | < 0.00167 µM | > 16.7 µM | < 0.00167 µM | > 16.7 µM | < 0.00167 µM | > 16.7 µM | < 0.00167 µM | > 16.7 µM | < 0.00167 µM | 0.00294 µM | < 0.00167 µM | > 16.7 µM
